{"source": "ChEMBL document CHEMBL1201862", "about": "“PubChem BioAssay data set” (2004)", "key": {"[1]": {"target": "Eukaryotic translation initiation factor 4E (Mus musculus, UniProt P63073)", "sequence (P63073 whole entry)": "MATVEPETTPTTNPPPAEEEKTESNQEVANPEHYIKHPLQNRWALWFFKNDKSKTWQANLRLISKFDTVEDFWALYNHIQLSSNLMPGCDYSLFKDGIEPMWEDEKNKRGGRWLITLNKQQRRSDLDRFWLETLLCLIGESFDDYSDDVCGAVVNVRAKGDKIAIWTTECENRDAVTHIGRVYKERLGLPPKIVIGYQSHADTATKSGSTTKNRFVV", "experiment": "eIF4E–eIF4G protein interaction inhibitors, dose response, biochemical, TR-FRET (AID 855);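 also: potency for disrupting eIF4E binding to eIF4GI seen as loss of FRET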", "type": "functional"}, "[2]": {"experiment": "cytotoxicity in HPDE-C7 cells, cell-based, fluorescence, HTS (AID 430)", "type": "functional", "conditions": "Homo sapiens"}, "[3]": {"experiment": "cytotoxicity in KRAS-transformed pancreatic duct cells, primary screen, cell-based, fluorescence, HTS (AID 431)", "type": "functional", "conditions": "Homo sapiens"}, "[4]": {"experiment": "cytotoxicity in HEK-293T cells, dose response, cytotoxicity control for BCR NF-kB inhibitor project, luminescence, B-cell screen hits (AID 489021);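 also: cells exposed to compound for about 14 hours before viability readout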", "type": "functional, cell-based"}, "[5]": {"tested_on": "H9c2", "experiment": "cells", "type": "functional, cell-based", "conditions": "Rattus norvegicus, H9c2, Myocardium"}, "[6]": {"experiment": "A cytotoxicity screen of small molecule inhibitors of the PhoP region in Salmonella typhi identified in the primary screen. [Related pubchem assays: 1850, 1864, 1985 ]", "type": "functional"}, "[7]": {"target": "T1, Short transient receptor potential channel 4 (Mus musculus, UniProt Q9QUQ5)", "T1 sequence (Q9QUQ5 whole entry)": "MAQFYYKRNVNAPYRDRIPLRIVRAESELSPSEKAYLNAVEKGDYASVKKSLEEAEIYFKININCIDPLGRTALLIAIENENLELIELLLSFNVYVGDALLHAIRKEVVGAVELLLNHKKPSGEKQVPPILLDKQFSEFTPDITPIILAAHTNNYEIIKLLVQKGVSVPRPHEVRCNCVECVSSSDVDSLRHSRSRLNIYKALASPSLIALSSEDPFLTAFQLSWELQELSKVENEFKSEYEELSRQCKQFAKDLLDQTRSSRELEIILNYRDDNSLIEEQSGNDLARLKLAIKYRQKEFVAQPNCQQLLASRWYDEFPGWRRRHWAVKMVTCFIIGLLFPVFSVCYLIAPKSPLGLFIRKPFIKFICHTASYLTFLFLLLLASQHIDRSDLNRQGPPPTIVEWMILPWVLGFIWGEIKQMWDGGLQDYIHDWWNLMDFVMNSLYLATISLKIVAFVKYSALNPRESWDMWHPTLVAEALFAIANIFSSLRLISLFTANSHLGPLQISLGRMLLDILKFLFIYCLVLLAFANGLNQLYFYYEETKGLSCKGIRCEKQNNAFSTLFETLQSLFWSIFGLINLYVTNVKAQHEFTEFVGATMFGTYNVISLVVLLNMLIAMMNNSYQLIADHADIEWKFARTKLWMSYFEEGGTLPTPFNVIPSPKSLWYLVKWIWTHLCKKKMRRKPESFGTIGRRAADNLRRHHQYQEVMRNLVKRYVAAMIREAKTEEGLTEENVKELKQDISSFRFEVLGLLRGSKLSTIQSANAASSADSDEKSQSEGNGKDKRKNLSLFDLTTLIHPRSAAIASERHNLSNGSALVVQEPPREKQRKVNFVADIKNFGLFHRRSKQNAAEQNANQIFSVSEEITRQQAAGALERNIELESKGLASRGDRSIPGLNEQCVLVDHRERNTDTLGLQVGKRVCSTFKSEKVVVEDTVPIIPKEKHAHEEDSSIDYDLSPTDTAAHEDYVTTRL", "experiment": "mouse TRPC4 channel activators, dose response, cell-based, HEK293 TRPC4/mu-opioid, Fluo-4 calcium (AID 434937)", "type": "functional"}, "[8]": {"target": "Voltage-dependent T-type calcium channel subunit alpha-1H (Homo sapiens, UniProt O95180)", "sequence (O95180 whole entry)": "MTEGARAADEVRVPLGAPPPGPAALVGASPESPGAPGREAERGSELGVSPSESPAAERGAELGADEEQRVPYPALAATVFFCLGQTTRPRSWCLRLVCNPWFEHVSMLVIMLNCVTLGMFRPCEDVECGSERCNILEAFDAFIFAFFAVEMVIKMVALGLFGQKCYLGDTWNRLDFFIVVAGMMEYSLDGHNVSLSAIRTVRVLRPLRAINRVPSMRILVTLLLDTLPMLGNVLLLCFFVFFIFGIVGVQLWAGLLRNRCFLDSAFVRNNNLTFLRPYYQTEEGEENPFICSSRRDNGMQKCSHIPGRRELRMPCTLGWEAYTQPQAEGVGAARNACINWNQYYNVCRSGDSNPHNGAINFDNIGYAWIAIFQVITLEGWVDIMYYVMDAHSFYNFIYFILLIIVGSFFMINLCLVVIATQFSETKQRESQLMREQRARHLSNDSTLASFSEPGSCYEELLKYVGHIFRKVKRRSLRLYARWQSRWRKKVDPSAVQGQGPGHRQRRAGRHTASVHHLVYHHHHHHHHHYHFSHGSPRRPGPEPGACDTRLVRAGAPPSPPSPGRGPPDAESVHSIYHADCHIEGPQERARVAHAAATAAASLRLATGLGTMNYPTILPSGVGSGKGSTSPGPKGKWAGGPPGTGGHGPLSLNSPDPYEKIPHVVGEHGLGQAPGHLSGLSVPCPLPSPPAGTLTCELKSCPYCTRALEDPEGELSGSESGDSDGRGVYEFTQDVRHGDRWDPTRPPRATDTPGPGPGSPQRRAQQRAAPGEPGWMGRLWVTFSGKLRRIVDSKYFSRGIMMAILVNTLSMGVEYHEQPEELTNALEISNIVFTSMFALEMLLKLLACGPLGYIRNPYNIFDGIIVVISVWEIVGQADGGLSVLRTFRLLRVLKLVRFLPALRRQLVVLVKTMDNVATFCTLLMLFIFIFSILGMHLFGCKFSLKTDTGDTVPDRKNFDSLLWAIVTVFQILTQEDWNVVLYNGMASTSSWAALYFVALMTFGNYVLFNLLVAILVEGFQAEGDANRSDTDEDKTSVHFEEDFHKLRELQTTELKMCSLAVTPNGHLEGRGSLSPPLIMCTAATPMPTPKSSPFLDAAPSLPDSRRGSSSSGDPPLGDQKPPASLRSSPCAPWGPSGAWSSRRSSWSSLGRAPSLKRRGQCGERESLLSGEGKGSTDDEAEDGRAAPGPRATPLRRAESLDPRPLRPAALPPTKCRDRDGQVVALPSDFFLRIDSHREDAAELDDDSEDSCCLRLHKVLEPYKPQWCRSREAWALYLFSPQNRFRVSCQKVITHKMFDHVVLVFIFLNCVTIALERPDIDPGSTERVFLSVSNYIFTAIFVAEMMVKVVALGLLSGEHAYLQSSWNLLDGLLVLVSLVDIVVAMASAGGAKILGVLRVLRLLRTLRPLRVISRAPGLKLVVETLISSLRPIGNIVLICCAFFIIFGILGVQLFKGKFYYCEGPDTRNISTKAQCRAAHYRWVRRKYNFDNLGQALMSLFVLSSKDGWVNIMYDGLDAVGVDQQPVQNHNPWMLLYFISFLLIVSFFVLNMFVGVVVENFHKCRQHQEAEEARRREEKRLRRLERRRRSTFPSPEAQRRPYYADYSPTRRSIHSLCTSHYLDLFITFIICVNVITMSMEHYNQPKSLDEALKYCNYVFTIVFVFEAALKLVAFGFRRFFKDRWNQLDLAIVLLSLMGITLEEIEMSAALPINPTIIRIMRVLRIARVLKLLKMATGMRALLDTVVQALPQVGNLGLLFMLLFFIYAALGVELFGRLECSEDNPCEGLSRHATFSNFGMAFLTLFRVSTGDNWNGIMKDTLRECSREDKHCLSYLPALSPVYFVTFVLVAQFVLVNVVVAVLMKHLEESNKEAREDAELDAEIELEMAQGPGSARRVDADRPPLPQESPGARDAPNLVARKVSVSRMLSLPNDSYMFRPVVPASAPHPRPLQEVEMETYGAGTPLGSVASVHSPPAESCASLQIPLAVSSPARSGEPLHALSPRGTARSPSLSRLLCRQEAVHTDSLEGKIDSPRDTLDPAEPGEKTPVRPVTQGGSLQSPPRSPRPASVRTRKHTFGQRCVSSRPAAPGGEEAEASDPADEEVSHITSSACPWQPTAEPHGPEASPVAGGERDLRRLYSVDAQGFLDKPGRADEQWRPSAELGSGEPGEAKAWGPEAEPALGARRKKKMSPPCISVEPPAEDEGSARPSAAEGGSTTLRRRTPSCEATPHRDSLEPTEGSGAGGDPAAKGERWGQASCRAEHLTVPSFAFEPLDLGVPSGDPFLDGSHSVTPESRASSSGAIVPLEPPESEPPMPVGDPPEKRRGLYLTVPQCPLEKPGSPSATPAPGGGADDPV", "type": "functional"}, "[9]": {"experiment": "cytotoxicity in HEK-293T cells, dose response, cytotoxicity control for TCR NF-kB inhibitor project, luminescence, T-cell screen hits (AID 489026);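 also: cells exposed to compound about 14 hours before the viability readout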", "type": "functional, cell-based"}, "[10]": {"target": "T2, Heat shock factor protein 1 (Mus musculus, UniProt P38532)", "T2 sequence (P38532 whole entry)": "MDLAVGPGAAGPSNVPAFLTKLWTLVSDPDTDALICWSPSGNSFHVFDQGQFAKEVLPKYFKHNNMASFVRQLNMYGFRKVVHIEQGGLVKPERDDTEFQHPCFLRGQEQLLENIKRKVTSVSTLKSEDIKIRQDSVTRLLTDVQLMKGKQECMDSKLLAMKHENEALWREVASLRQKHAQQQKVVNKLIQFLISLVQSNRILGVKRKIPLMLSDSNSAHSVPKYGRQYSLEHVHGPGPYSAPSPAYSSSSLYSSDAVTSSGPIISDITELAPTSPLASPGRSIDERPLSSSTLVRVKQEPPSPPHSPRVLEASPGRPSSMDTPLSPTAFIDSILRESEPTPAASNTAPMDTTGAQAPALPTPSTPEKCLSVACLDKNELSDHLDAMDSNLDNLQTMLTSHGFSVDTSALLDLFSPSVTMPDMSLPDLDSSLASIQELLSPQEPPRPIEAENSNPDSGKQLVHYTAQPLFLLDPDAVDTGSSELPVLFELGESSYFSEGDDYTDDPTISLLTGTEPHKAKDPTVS", "experiment": "HSF1 potentiators in luciferase reporter cells, confirmation, cell-based, NIH3T3, luminescence, dose retest (AID 435004);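 also: stress induced by proteasome inhibitor MG132 added 30 min after compound; actives raise luminescence as potentiators of the MG132 stress response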", "type": "functional"}, "[11]": {"target": "Cytochrome P450 3A4 (Homo sapiens, UniProt P08684)", "sequence (P08684 whole entry)": "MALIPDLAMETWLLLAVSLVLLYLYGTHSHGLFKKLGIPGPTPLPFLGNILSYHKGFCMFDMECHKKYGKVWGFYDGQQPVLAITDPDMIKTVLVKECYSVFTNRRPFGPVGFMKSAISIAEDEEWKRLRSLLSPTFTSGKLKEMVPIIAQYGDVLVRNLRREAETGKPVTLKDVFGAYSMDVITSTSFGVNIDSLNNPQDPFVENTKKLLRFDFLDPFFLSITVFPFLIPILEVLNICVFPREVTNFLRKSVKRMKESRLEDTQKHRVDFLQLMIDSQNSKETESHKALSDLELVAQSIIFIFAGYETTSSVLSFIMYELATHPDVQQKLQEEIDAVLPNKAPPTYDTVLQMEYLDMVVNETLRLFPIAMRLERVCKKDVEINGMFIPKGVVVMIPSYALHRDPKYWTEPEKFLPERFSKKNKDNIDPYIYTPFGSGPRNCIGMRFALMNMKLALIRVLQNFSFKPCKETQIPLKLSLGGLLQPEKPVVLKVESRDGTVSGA", "conditions": "Potency"}, "[12]": {"tested_on": "INS1", "experiment": "beta cell apoptosis inhibitors, cytokine rescue, dose response, luminescence, retest (AID 449756);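 also: cell death triggered by IL-1 beta plus TNF-alpha plus IFN-gamma mixture; protective hits raise ATP signal compared with cytokine alone wells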", "type": "functional, cell-based", "conditions": "Rattus norvegicus"}, "[13]": {"target": "T3, Endoribonuclease toxin MazF (Escherichia coli K-12, UniProt P0AE70)", "T3 sequence (P0AE70 whole entry)": "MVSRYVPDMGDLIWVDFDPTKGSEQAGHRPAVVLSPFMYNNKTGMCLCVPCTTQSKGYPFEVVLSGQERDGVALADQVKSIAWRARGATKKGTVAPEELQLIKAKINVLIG", "experiment": "fluorescent RNA oligo signal without MazF, dose response, counter-screen for MazEF activator project, biochemical, fluorescence, single-stranded RNase substrate (AID 588502)", "type": "functional"}, "[14]": {"target": "T3, Endoribonuclease toxin MazF", "experiment": "MazF toxin RNase activators, dose response, biochemical, fluorescence, single-stranded RNA substrate, uHTS hits (AID 588481)", "type": "functional"}, "[15]": {"tested_on": "Streptococcus", "experiment": "Group A Streptococcus viability loss, dose response, counter-screen for streptokinase expression inhibitor project, luminescence, BacTiterGlo (AID 1915);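 also: potency for reduction of bacterial viability or growth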", "type": "functional, organism-based"}, "[16]": {"tested_on": "Streptococcus sp. 'group A'", "experiment": "growth inhibition of control SK(-) GAS strain, dose response, counter-screen for streptokinase expression inhibitor project, luminescence, kanamycin, BacTiterGlo, confirmation (AID 1900)", "type": "functional, organism-based"}, "[17]": {"experiment": "P. falciparum 3D7-ScDHODH growth inhibitors, dose response, SYBR Green, dry powder samples (AID 1159570);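 also: parasite growth measured after 72 hours of compound exposure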", "type": "functional, cell-based"}, "[18]": {"experiment": "P. falciparum ATP4 D1247Y mutant growth inhibitors, dose response, NITD609-resistant line, SYBR Green, dry powder (AID 1159571);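 also: parasites synchronized at ring stage by sorbitol before testing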", "type": "functional, cell-based"}, "[19]": {"experiment": "P. falciparum Dd2 growth inhibitors, dose response, SYBR Green, dry powder samples (AID 1159566);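 also: potency for growth inhibition with lower SYBR green DNA signal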", "type": "functional, cell-based"}, "[20]": {"experiment": "HepG2 cell cytotoxicity, dose response, cytotoxicity control, plate reader, dry powder samples (AID 1159569);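 also: inhibitor potency with signal falling toward the positive control level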", "type": "functional, cell-based"}, "[21]": {"experiment": "P. falciparum Dd2 growth inhibitors, dose response, SYBR Green, cherry-picked samples (AID 1159567)", "type": "functional, cell-based"}, "[22]": {"target": "T4, Estrogen receptor (Homo sapiens, UniProt P03372)", "T4 sequence (P03372 whole entry)": "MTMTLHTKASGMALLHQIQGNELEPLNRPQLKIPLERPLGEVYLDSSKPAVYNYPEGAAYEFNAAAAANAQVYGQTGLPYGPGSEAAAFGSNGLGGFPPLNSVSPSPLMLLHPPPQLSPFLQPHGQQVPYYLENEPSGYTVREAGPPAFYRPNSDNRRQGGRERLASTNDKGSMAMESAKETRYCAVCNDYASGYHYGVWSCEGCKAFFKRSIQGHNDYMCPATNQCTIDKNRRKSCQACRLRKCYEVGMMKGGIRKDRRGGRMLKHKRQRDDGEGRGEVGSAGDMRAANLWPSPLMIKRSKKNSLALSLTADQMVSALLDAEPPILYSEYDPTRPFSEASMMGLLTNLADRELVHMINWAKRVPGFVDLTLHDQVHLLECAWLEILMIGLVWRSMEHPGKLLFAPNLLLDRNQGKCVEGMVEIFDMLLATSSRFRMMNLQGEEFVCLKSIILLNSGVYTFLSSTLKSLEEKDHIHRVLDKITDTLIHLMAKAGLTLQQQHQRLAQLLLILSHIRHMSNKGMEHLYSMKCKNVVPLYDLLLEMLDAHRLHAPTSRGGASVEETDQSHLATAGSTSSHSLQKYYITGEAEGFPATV"}}, "note": "Active and inactive are the calls of the source.", "data": [{"smiles": "Cc1cc(CSc2ccccc2)ccc1NC(=O)c1cccc([N+](=O)[O-])c1", "values": [{"measurement": "IC50", "setting": "[1]", "value": "> 64 µM (inactive)"}]}, {"smiles": "Cc1cc(NCc2ccccc2)nc(-c2ccccc2O)n1", "values": [{"measurement": "EC50", "setting": "[2]", "value": "19.2 µM (active)"}, {"measurement": "EC50", "setting": "[3]", "value": "10.3 µM (active)"}]}, {"smiles": "CC(C)(C)c1ccc(-c2nnc(SCC(=O)NC3CC3)o2)cc1", "values": [{"measurement": "IC50", "setting": "[4]", "value": "> 80 µM (inactive)"}]}, {"smiles": "CCOc1ccc2ccccc2c1C(=O)N[C@@H]1C(=O)N2[C@@H]1SC(C)(C)[C@@H]2C(=O)O", "note": "[NAFCILLIN SODIUM]", "values": [{"measurement": "IC50", "setting": "[5]", "value": "> 79 µM (inactive)"}, {"measurement": "EC50", "setting": "[6]", "value": "> 50 µM (active)"}]}, {"smiles": "Cc1ccn(CC(=O)NC2CCCN(Cc3ccc(CC(C)C)cc3)C2)n1", "note": "(stereo not given)", "values": [{"measurement": "EC50", "setting": "[7]", "value": "1.68 µM (active)"}]}, {"smiles": "C=CCn1c(SC(C)C(=O)NCCC2=CCCCC2)nc2ccccc2c1=O", "note": "(stereo not given)", "values": [{"measurement": "EC50", "setting": "[8]", "value": "3.01 µM (active)"}]}, {"smiles": "CCOC(=O)c1[nH]c(C)c(C(=O)Nc2cc(OC)ccc2OC)c1C", "values": [{"measurement": "IC50", "setting": "[9]", "value": "> 80 µM (inactive)"}]}, {"smiles": "O=C(Oc1cccc2cccnc12)c1ccc(Br)o1", "values": [{"measurement": "EC50", "setting": "[2]", "value": "13.9 µM (active)"}, {"measurement": "EC50", "setting": "[3]", "value": "> 20 µM (not active)"}, {"measurement": "EC50", "setting": "[10]", "value": "> 260 µM (inactive)"}]}, {"smiles": "COc1cc(-c2cc(=O)c3c(O)c(OC)c(OC)c(OC)c3o2)cc(OC)c1OC", "note": "[GARDENIN]", "values": [{"measurement": "AC50", "setting": "[11]", "value": "3.16 µM (inconclusive)"}, {"measurement": "IC50", "setting": "[4]", "value": "> 80 µM (inactive)"}]}, {"smiles": "Cc1ccc(C2=CC(c3ccc(N(C)C)cc3)n3nnnc3N2)cc1", "note": "(stereo not given)", "values": [{"measurement": "EC50", "setting": "[2]", "value": "0.09 µM (active)"}, {"measurement": "AC50", "setting": "[12]", "value": "6.88 µM (active)"}, {"measurement": "EC50", "setting": "[13]", "value": "> 99 µM (inactive)"}, {"measurement": "EC50", "setting": "[3]", "value": "0.21 µM (active)"}, {"measurement": "EC50", "setting": "[14]", "value": "> 99 µM (inactive)"}]}, {"smiles": "C=C(C)[C@@H]1CC[C@]2(C(=O)O)CC[C@]3(C)[C@H](CC[C@@H]4[C@@]5(C)CCC(=O)C(C)(C)[C@@H]5CC[C@]43C)[C@@H]12", "note": "[BETUNOLIC ACID]", "values": [{"measurement": "EC50", "setting": "[15]", "value": "2.88 µM (active)"}, {"measurement": "EC50", "setting": "[16]", "value": "1.68 µM (active)"}, {"measurement": "IC50", "setting": "[4]", "value": "> 80 µM (inactive)"}]}, {"smiles": "Cn1c(=O)cc(Nc2ccccc2)c2c(=O)n(-c3ccccc3)c(=O)n(-c3ccccc3)c21", "values": [{"measurement": "IC50", "setting": "[4]", "value": "> 80 µM (inactive)"}]}, {"smiles": "C[C@H]1CN([C@@H](C)CO)C(=O)c2c(c3ccccc3n2C)-c2ccccc2CO[C@H]1CN(C)C(=O)c1cc(Cl)cc(Cl)c1", "values": [{"measurement": "AC50", "setting": "[17]", "value": "2.36 µM (active)"}, {"measurement": "AC50", "setting": "[18]", "value": "1.58 µM (active)"}, {"measurement": "AC50", "setting": "[19]", "value": "1.48 µM (active)"}, {"measurement": "AC50", "setting": "[20]", "value": "27.8 µM (active)"}, {"measurement": "AC50", "setting": "[21]", "value": "2.14 µM (active)"}]}, {"smiles": "CSc1nccc(-c2nn(-c3ccc(C)cc3)ccc2=O)n1", "values": [{"measurement": "IC50", "setting": "[9]", "value": "> 80 µM (inactive)"}]}, {"smiles": "COc1cc(C)c(S(=O)(=O)NCc2ccc3c(c2)OCO3)cc1C", "values": [{"measurement": "IC50", "setting": "[22]", "value": "> 50 µM (not active)"}]}]}
